Reference: patent US20140206748A1, “COMPOSITIONS AND METHODS RELATED TO PROSTATE CANCER” (Regents of the University of Minnesota, priority 2013, published 2014)
Read-outs that look alike come from different tables or passages of the source.

Key:
22Rv1 cells = experiment: Growth of 22Rv1 cells under castrate conditions (crystal violet staining); format: cell-based, human; details: CSS; 10 μM bicalutamide or 1 μM enzalutamide
CWR-R1 cells = details: castrate conditions; 10 μM bicalutamide or 1 μM enzalutamide
[1] = tested on: castration-resistant prostate cancer patients; details: Phase III trials; cited from earlier work
LNCaP cells [2] = details: 0.1 nM DHT to 100 nM DHT
LNCaP cells [3] = tested on: LNCaP cells
Protocol: Normalized gene expression data was ranked using the Signal2Noise metric and GSEA was performed against 1000 random gene set permutations.

androgen receptor (AR) = experiment: MMTV-Luc reporter assay in CWR-R1 early and CWR-R1 late cells; format: cell-based, human; details: 1 nM mibolerone, 24 hours; CWR-R1 early vs CWR-R1 late cells

CNC(=O)c1ccc(N2C(=S)N(c3ccc(C#N)c(C(F)(F)F)c3)C(=O)C2(C)C)cc1F [enzalutamide]
growth of 22Rv1 cells under castrate conditions (22Rv1 cells): unaffected
androgen-independent growth of deletion-enriched CWR-R1 cells (CWR-R1 cells): insensitive
increase of overall survival [1]: 4.8 months

C[C@]12CCC(=O)C[C@@H]1CC[C@@H]1[C@@H]2CC[C@]2(C)[C@@H](O)CC[C@@H]12 [DHT, dihydrotestosterone]
PSA expression (LNCaP cells [2]): increased concomitant with increasing androgen concentration
expression of M-phase genes UBE2C, CDCA5, ZWINT, and CCNA2 (LNCaP cells [2]): biphasic response
enrichment of the "full-length AR" signature (GSEA) (LNCaP cells [3]; 1 nM DHT and 100 nM DHT datasets): positive enrichment
enrichment of the "AR-V-specific" signature (GSEA) (LNCaP cells [3]; 1 nM DHT dataset (GSE26483)): positive enrichment
enrichment of the "AR-V-specific" signature (GSEA) (LNCaP cells [3]; 100 nM DHT dataset (GSE7868)): strong negative enrichment

C[C@@H]1CC2=CC(=O)CC[C@@H]2[C@H]2CC[C@@]3(C)[C@@H](CC[C@]3(C)O)[C@@H]21 [mibolerone]
AR transactivation (MMTV-Luc) in response to androgen (androgen receptor (AR)): higher in CWR-R1 early cells than CWR-R1 late cells
